According to PMC8346996, “Antiradical Properties of N-Oxide Surfactants—Two in One” (International Journal of Molecular Sciences, 2021):
In brackets after ≈: the same amount, converted by molar mass. Like-named read-outs stand apart in the source and are kept apart here. Marks after values point to notes of the source that are not given here.

Columns and labels:
[1] = MTT cell viability assay, HGFs; type: cell-based, human; settings: human, primary human gingival fibroblasts (HGFs), evaluated for CMC; for viability at 24 h: read-out: Viability 24 h HGF’s; for viability at 48 h: read-out: Viability 48 h HGF’s
Protocol: (§1) HaCaT (immortalized human keratinocytes from histologically normal skin) cell line was obtained from the CLS Cell Lines Service GmbH (Eppelheim, Germany). HGFs (human gingival fibroblasts) derive from primary cell culture. The cells were isolated according to the procedure described by Saczko et al. and patented by Saczko et al.. Cells were grown in plastic cell culture flasks in Dulbecco’s Modified Eagle’s Medium, supplemented with fetal bovine serum (FBS, Lonza, Morrisville, NC, USA), with 100 IU/mL penicillin, 50 mg streptomycin, and 125 μg amphotericin B (Sigma). The cells were maintained in a humidified atmosphere at 37 °C and 5% CO2. The cells were regularly maintained by systematic passaging. For experimental purposes, the cells were removed by trypsinization (0.25% Trypsin-EDTA, Sigma).
(§2) MTT (Sigma) test was used to determine the viability of HaCaT and HGFs cells. The MTT assay was used to test mitochondrial metabolic functioning. Cells were seeded on flat bottom 96-well tissue culture plates at a density of 10^4 cells/well and allowed to grow in a CO2 incubator at 37 °C overnight. In the case of these studies, the culture medium was removed, surfactant solutions were added, and the cells were exposed for 24 and 48 h to compounds at doses ranging from 50 to 2000 μg/mL. After incubation, MTT assay was applied according to the manufacturer protocol. The absorbance was measured at 570 nm using a multiwell plate reader (EnSpire Multimode Reader, Perkin Elmer). Each experiment was performed in a few independent repetitions. Mean values and standard deviations of all results were calculated. The final results were expressed as the percentage of mitochondrial function relative to untreated control cells.

[2] = test system: primary fibroblasts (HGFs); assay: MTT cell viability assay, HGFs; type: cell-based, human; settings: Homo sapiens, Fibroblast, MTT
Protocol: as §1, §2

[3] = MTT cell viability assay, HaCaT; type: cell-based, human; settings: human, HaCaT cells (immortalized human keratinocytes), evaluated for CMC
Protocol: as §1, §2

[4] = test system: normal human keratinocytes (HaCaT); assay: MTT cell viability assay, HaCaT; type: cell-based; settings: Homo sapiens, HaCaT, MTT
Protocol: as §1, §2

[5] = DPPH• scavenging kinetics by UV-vis, pseudo-first-order conditions; settings: for second-order rate constant k2 for the reaction with DPPH•: ethanol, 298 K, deaerated, DPPH• 2.2 × 10^−4 M, surfactant 0.012-0.12 M; for k2 higher in comparison with the CnPDA homolog: reaction with DPPH•
Protocol: After confirming that the absorption maximum at 517 nm of DPPH• is outside the surfactant’s absorption range, the rate of the DPPH•-scavenging reaction of the N-oxides was measured by monitoring the decrease in absorbance of this maximum. To ensure that the decay of DPPH• obeyed pseudo-first-order kinetics, the concentration of surfactants was at least a 54-fold excess of the DPPH• concentration. As explained in SI, the calculated pseudo-first-order rate constants, kobs, increased linearly with the concentration of Cn(DAPANO)2 and CnPDA (shown in SI). The second-order rate constants k2 for the reaction between the N-oxides and DPPH• were determined from the slopes of the linear plots of kobs vs. the concentration of the surfactants and are given in Figure 6.
The measurements were done under deaerated conditions at 298 K in ethanol solutions (2 mL in a 10 mm quartz cuvette) containing DPPH^• (C = 2.2 × 10^−4 M) and a surfactant at each of five different concentrations, namely C1 = 0.12 M, C2 = 0.09 M, C3 = 0.06 M, C4 = 0.03 M, and C5 = 0.012 M. UV−vis spectral changes associated with the undergoing reaction were monitored at 516 nm, using a Varian Cary 50Conc UV−visible Spectrophotometer. The following equations of the calibration curve were used to calculate DPPH^• concentrations in the reaction system: Abs = 4.0189 × C[mM] + 0.00813 (R^2 = 0.9998). The rate of DPPH^• scavenging reaction was determined using pseudo-first-order kinetics (the concentration of CnPDA or Cn(DAPANO)2 was maintained at more than 54-fold excess of the radical concentration); further details are given as Supporting Information.

[6] = parameters: method as in PMID 23098238; settings: cited from earlier work
[7] = parameters: method as in PMID 23098238; settings: cited from earlier work; remark: listed apart in the source
human keratinocytes = assay: ROS evaluation (DCF assay), human keratinocytes; type: cell-based; settings: after ROS induction by DHTTP; surfactant in CMC concentration
Protocol: (§3) Antioxidative properties of the tested surfactant were evaluated. To induce ROS production, a DPPH solution was prepared (C = 2.55 × 10^−3 mol/dm3). Normal fibroblasts and keratinocytes were seeded on flat bottom 96-well tissue culture plates at a density of 10^4 cells/well and allowed to grow in a CO2 incubator at 37°C overnight. Then, culture medium was removed and 200 µL of DPPH solution in DMEM was added to the plate and left for 1 h in a CO2 incubator at 37 °C. After incubation, DPPH solution was removed and ROS production was determined using DCF assay (Life Technologies, Warsaw, Poland). The DCF assay was conducted with 6-carboxy-2′,7′-dichlorodihydrofluorescein diacetate 2′,7′-dichlorofluorescein (carboxy-H2DCFDA). After deacetylation of H2DCFDA to H2DCF or carboxy-H2DCFDA to carboxy-H2DCF, cellular ROS oxidize H2DCF and carboxy-H2DCF to 2′,7′-dichlorofluorescein (DCF) and 2′,7′-carboxydichlorofluorescein (carboxy-DCF), respectively. The carboxy-H2DCFDA was dissolved in sterile DMSO to generate a stock solution of 50 µg/mL. For experiments, the stock solution of carboxy-H2DCFDA was brought to room temperature in the dark and then diluted in a cell culture medium without FBS. After washout of the incubation medium from cells with PBS, the reagent was added to cell culture to a final concentration of 10 µM and for 30 min was incubated at 37 °C in darkness. After incubation, excitation wavelength of 495 nm and emission wavelength of 530 nm were used by a multiwell scanning spectrophotometer (EnSpire Perkin Elmer, Krakow, Poland). In the next stage, surfactant solutions in CMC concentrations were added into cells after 1 h incubation with DHTTP solution. Cells were incubated, and ROS were detected 30 min by a multiwell scanning spectrophotometer (EnSpire Perkin Elmer, Poland).

primary fibroblasts = assay: ROS evaluation (DCF assay), primary fibroblasts; type: cell-based, human; settings: after ROS induction by DHTTP; surfactant in CMC concentration
Protocol: as §3

[8] = Hydrodynamic radius of micelles by dynamic light scattering (DLS); type: physicochemical; settings: 298 K, surfactant at 100 x CMC
Protocol: The hydrodynamic diameter for CnPDA was determined by the DLS method. The measurements were performed using a Nano Series Zetasizer from Malvern Instruments (UK) with a detection angle of 173°, equipped with a He−Ne laser (632.8 nm) and an ALV 5000 multibit multitau autocorrelator. Before the measurements, the samples were filtered through a filter (with a pore size of 0.2 μm) directly into the optical cell to remove any impurities. All of the DLS measurements were performed at 298 ± 0.1 K and at a surfactant concentration a hundred times higher than the critical micelle concentration (CMC). Each value was obtained as the average of three runs with at least 10 measurements. The DTS software (Nano) was used to evaluate the data.

[9] = 24 h incubation, read-out: IC50 HGFs 24 h
[10] = 48 h incubation, read-out: IC50 HGFs 48 h
[11] = 24 h incubation, read-out: IC50 HaCaT 24 h
[12] = 48 h incubation, read-out: IC50 HaCaT 48 h

| RH DLS [8] | SMILES | viability at 24 h [1] | viability at 48 h [1] | IC50 [2, 9] | IC50 [2, 10] | viability at 24 h [3] | viability at 48 h [3] | IC50 [4, 11] | IC50 [4, 12] | second-order rate constant k2 for the reaction with DPPH• [5] | k2 higher in comparison with the CnPDA homolog [5] | RH DLS [6] | CMC [7] | radical (ROS) level, DCF fluorescence (human keratinocytes) | radical (ROS) level, DCF fluorescence (primary fibroblasts) |
| --- | --- | --- | --- | --- | --- | --- | --- | --- | --- | --- | --- | --- | --- | --- | --- |
| – | CCCCCCCCCCCCCC(=O)N(CCC[N+](C)(C)[O-])CCC[N+](C)(C)[O-] [C14(DAPANO)2] | 17.7% | 11.5% | 68.5 µg/mL (≈ 159 µM) | 0.89 µg/mL (≈ 2.07 µM) | 11.3% | 4.5% | 32 µg/mL (≈ 74.5 µM) | 17 µg/mL (≈ 39.6 µM) | 0.00117 M⁻¹ s⁻¹ | 16% | 2.28 ^a nm | 8.0·10^−4 a M | not significant decrease in radical level | not significant decrease in radical level |
| 2.19 nm | CCCCCCCCCCCCCC(=O)NCCC[N+](C)(C)[O-] [C14PDA] | 104% | 78.2% | 69.9 µg/mL (≈ 213 µM) | 1.6 µg/mL (≈ 4.87 µM) | 81.1% | 119% | 48.1 µg/mL (≈ 146 µM) | 9.9 µg/mL (≈ 30.1 µM) | 0.00101 M⁻¹ s⁻¹ | – | – | – | most significant decrease of fluorescence level | most significant decrease of fluorescence level |
| – | CCCCCCCCCCCCCCCC(=O)N(CCC[N+](C)(C)[O-])CCC[N+](C)(C)[O-] [C16(DAPANO)2] | 27.8% | 12.3% | 14.3 µg/mL (≈ 31.2 µM) | 0.76 µg/mL (≈ 1.66 µM) | 14.7% | 3.9% | 29 µg/mL (≈ 63.4 µM) | 18.2 µg/mL (≈ 39.8 µM) | 0.00138 M⁻¹ s⁻¹ | 10% | 2.38 ^a nm | 1.5·10^−4 a M | not significant decrease in radical level | not significant decrease in radical level |
| 2.27 nm | CCCCCCCCCCCCCCCC(=O)NCCC[N+](C)(C)[O-] [C16PDA] | 96.9% | 81.7% | 44.1 µg/mL (≈ 124 µM) | 1.9 µg/mL (≈ 5.33 µM) | 140% | 123% | 48.1 µg/mL (≈ 135 µM) | 9.8 µg/mL (≈ 27.5 µM) | 0.00125 M⁻¹ s⁻¹ | – | – | – | – | – |
